Laboratory results published in the Kinase Knowledgebase extract (Sharma et al. 2016).

Biological target: PIK3CA (human) (UniProt P42336)
Experiment: Assessment of PIK3CA Kinase Activity

Sequence of PIK3CA (human) (P42336 whole entry, looked up): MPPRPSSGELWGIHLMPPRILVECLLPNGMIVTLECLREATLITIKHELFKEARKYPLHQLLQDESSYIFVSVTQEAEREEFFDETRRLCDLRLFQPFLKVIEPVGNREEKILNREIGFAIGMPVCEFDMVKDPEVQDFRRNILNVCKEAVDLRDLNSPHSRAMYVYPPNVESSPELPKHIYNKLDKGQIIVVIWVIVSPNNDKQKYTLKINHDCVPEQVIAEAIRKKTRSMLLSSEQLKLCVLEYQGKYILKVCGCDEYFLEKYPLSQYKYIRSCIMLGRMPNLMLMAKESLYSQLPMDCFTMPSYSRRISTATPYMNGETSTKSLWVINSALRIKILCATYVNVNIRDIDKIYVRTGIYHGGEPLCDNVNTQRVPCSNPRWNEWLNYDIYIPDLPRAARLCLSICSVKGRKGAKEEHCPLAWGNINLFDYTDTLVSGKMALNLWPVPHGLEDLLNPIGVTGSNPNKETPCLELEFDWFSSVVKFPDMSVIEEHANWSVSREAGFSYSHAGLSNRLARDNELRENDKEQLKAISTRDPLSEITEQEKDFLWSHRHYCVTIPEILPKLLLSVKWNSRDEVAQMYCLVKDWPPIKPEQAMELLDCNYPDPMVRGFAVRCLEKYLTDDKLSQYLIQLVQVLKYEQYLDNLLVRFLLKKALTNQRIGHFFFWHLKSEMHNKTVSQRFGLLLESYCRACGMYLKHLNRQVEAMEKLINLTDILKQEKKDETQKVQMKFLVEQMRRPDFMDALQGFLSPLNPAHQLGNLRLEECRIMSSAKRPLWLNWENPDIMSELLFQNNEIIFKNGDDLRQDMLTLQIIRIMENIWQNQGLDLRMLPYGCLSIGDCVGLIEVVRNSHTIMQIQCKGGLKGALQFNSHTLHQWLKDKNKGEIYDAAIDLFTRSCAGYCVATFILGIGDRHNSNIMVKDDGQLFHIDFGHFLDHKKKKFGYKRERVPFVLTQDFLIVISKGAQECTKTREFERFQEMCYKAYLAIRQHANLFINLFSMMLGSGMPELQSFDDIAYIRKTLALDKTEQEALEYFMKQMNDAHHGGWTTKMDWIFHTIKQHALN

Structure (SMILES) | IC50
CN(Cc1cc2nc(-c3cccc4[nH]c(=S)[nH]c34)nc(N3CCOCC3)c2s1)c1ncc(C(=O)NO)cn1 | < 100 nM
CNc1ccc(-c2nc(N3CCOCC3)c3sc(S(=O)(=O)NCC4CCN(c5ncc(C(=O)NO)cn5)CC4)cc3n2)cn1 | < 100 nM
COc1ccc(-c2nc(N3CCOCC3)c3sc(NCCCCC(=O)NO)cc3n2)cn1 | < 100 nM
COc1ccc(-c2nc(N3CCOCC3)c3sc(S(=O)(=O)Nc4ncc(C(=O)NO)cn4)cc3n2)cn1 | < 100 nM
CCN(CC)c1nc(-c2cccc3[nH]ncc23)nc2cc(CN(C)c3ncc(C(=O)NO)cn3)sc12 | > 10000 nM
Nc1ncc(-c2nc(N3CCOCC3)c3sc(NCCCC(=O)NO)cc3n2)cn1 | < 100 nM
CCCc1nc2cc(C=CC(=O)NO)ccc2n1CCNCc1cc2nc(-c3ccc(NC)nc3)nc(N3CCOCC3)c2s1 | < 100 nM
COCCNc1nc(-c2cccc3[nH]ncc23)nc2cc(CN(C)c3ncc(C(=O)NO)cn3)sc12 | > 10000 nM
Nc1ccc(-c2nc(N3CCOCC3)c3sc(CN(CCO)c4ncc(C(=O)NO)cn4)cc3n2)cc1 | < 100 nM
CNc1ccc(-c2nc(N3CCOCC3)c3sc(N(C)c4ncc(C(=O)NO)cn4)cc3n2)cn1 | < 100 nM
CN(Cc1cc2nc(-c3ccc(N4CCCC4)cc3)nc(N3CCOCC3)c2s1)c1ncc(C(=O)NO)cn1 | > 10000 nM
CN(Cc1cc2nc(-c3ccc4c(c3)CC(=O)N4)nc(N3CCOCC3)c2s1)c1ncc(C(=O)NO)cn1 | > 10000 nM
Nc1ncc(-c2nc(N3CCOCC3)c3sc(NS(=O)(=O)c4cccc(/C=C/C(=O)NO)c4)cc3n2)cn1 | < 100 nM
CN(Cc1cc2nc(-c3cccc4[nH]ncc34)nc(N3CCN(CCO)CC3)c2s1)c1ncc(C(=O)NO)cn1 | > 10000 nM
CN(Cc1cc2nc(-c3cccc(NS(C)(=O)=O)c3)nc(N3CCOCC3)c2s1)c1ncc(C(=O)NO)cn1 | > 10000 nM
CS(=O)(=O)N1CCN(Cc2cc3nc(-c4cccc5c4cnn5CCCCCC(=O)NO)nc(N4CCOCC4)c3s2)CC1 | > 10000 nM
CC(=NO)c1ccc(F)c(-c2nc(N3CCOCC3)c3sc(CN(C)c4ncc(C(=O)NO)cn4)cc3n2)c1 | 100 to 1000 nM
COc1ccc(-c2nc(N3CCOCC3)c3sc(NS(=O)(=O)c4ccc(C=CC(=O)NO)cc4)cc3n2)cn1 | 100 to 1000 nM
COc1ccc(-c2nc(N3CCOCC3)c3sc(NCCCCCC(=O)NO)cc3n2)cn1 | < 100 nM
Cc1ncc(-c2nc(N3CCOCC3)c3sc(CN(CCO)c4ncc(C(=O)NO)cn4)cc3n2)s1 | 100 to 1000 nM
CN(Cc1cc2nc(-c3ccc4[nH]c(=O)[nH]c4c3)nc(N3CCOCC3)c2s1)c1ncc(C(=O)NO)cn1 | > 10000 nM
CS(=O)(=O)N1CCN(Cc2cc3nc(-c4cccc5nn(CCCCCC(=O)NO)cc45)nc(N4CCOCC4)c3s2)CC1 | > 10000 nM
CNc1ccc(-c2nc(N3CCOCC3)c3sc(C(C)(C)Nc4ncc(C(=O)NO)cn4)cc3n2)cn1 | < 100 nM
Nc1ncc(-c2nc(N3CCOCC3)c3sc(NCCCCC(=O)NO)cc3n2)cn1 | < 100 nM
COc1cccc(Nc2nc(-c3cccc4[nH]ncc34)nc3cc(CN(C)c4ncc(C(=O)NO)cn4)sc23)c1 | > 10000 nM
Nc1ncc(-c2nc(N3CCOCC3)c3sc(NS(=O)(=O)c4ccc(/C=C/C(=O)NO)cc4)cc3n2)cn1 | < 100 nM
O=C(C=Cc1cccc(S(=O)(=O)Nc2cc3nc(-c4cccc5[nH]ncc45)nc(N4CCOCC4)c3s2)c1)NO | < 100 nM
CNc1ccc(-c2nc(N3CCOCC3)c3sc(C(C)N(C)c4ncc(C(=O)NO)cn4)cc3n2)cn1 (centres undefined) | < 100 nM

Structure (SMILES) | IC50
CN(c1ncc(C(=O)NO)cn1)c1cc2nc(-c3ccc(N)cc3)nc(N3CCOCC3)c2s1 | < 100 nM
COc1ccc(-c2nc(N3CCOCC3)c3sc(Nc4ncc(C(=O)NO)cn4)cc3n2)cn1 | < 100 nM
O=C(CCCCNc1cc2nc(-c3cc(O)ccc3F)nc(N3CCOCC3)c2s1)NO | < 100 nM
Nc1ccc(-c2nc(N3CCOCC3)c3sc(CN(CCO)c4ncc(C(=O)NO)cn4)cc3n2)cc1F | < 100 nM
Nc1ccc(-c2nc(N3CCOCC3)c3sc(CN(CCO)c4ncc(C(=O)NO)cn4)cc3n2)cn1 | < 100 nM
CS(=O)(=O)N1CCN(Cc2cc3nc(-c4cccc5[nH]ncc45)nc(NCCCCCCC(=O)NO)c3s2)CC1 | > 10000 nM
COc1ccc(-c2nc(N3CCOCC3)c3sc(NS(=O)(=O)c4cccc(/C=C/C(=O)NO)c4)cc3n2)cn1 | < 100 nM
Nc1ccc(-c2nc(N3CCOCC3)c3sc(C(=O)NCC4CCN(c5ncc(C(=O)NO)cn5)CC4)cc3n2)cc1 | 100 to 1000 nM
COc1ncc(-c2nc(N3CCOCC3)c3sc(C(C)(C)Nc4ncc(C(=O)NO)cn4)cc3n2)cn1 | < 100 nM
CC(C)OC(=O)Nc1ccc(-c2nc(N3CCOCC3)c3sc(CN(C)c4ncc(C(=O)NO)cn4)cc3n2)cc1 | > 10000 nM
CS(=O)(=O)N1CCN(Cc2cc3nc(-c4ccc(OCCCCCC(=O)NO)cc4)nc(N4CCOCC4)c3s2)CC1 | 100 to 1000 nM
COc1ccc(-c2nc(N3CCOCC3)c3sc(C(C)N(C)c4ncc(C(=O)NO)cn4)cc3n2)cn1 (centres undefined) | < 100 nM
CS(=O)(=O)N1CCN(Cc2cc3nc(-c4ccc(OCCCCC(=O)NO)cc4)nc(N4CCOCC4)c3s2)CC1 | 100 to 1000 nM
CS(=O)(=O)N1CCN(Cc2cc3nc(-c4cccc5[nH]ncc45)nc(N4CCN(CCCCCC(=O)NO)CC4)c3s2)CC1 | > 10000 nM
CS(=O)(=O)N1CCN(Cc2cc3nc(-c4cccc5nn(CCCCCCC(=O)NO)cc45)nc(N4CCOCC4)c3s2)CC1 | > 10000 nM
Nc1ncc(-c2nc(N3CCOCC3)c3sc(NCCCCCC(=O)NO)cc3n2)cn1 | < 100 nM
Nc1ccc(-c2nc(N3CCOCC3)c3sc(Nc4ncc(C(=O)NO)cn4)cc3n2)cc1 | < 100 nM
COc1ccc(-c2nc(N3CCOCC3)c3sc(C(C)(C)Nc4ncc(C(=O)NO)cn4)cc3n2)cn1 | < 100 nM
CS(=O)(=O)N1CCN(Cc2cc3nc(-c4cccc5[nH]ncc45)nc(N4CCN(CCCCC(=O)NO)CC4)c3s2)CC1 | > 10000 nM
CN(Cc1cc2nc(-c3ccc4c(c3)NC(=O)CO4)nc(N3CCOCC3)c2s1)c1ncc(C(=O)NO)cn1 | > 10000 nM
CN(Cc1cc2nc(-c3ccc4[nH]c(C(F)(F)F)nc4c3)nc(N3CCOCC3)c2s1)c1ncc(C(=O)NO)cn1 | < 100 nM
O=C(NO)c1ccc2c(ccn2Cc2cc3nc(-c4cccc5[nH]ncc45)nc(N4CCOCC4)c3s2)c1 | > 10000 nM
CNc1ccc(-c2nc(N3CCOCC3)c3sc(NS(=O)(=O)c4cccc(C=CC(=O)NO)c4)cc3n2)cn1 | < 100 nM
CS(=O)(=O)N1CCN(Cc2cc3nc(-c4cccc5c4cnn5CCCCC(=O)NO)nc(N4CCOCC4)c3s2)CC1 | > 10000 nM
Nc1ccc(-c2nc(N3CCOCC3)c3sc(S(=O)(=O)Nc4ncc(C(=O)NO)cn4)cc3n2)cc1 | < 100 nM
CNc1ccc(-c2nc(N3CCOCC3)c3sc(CN(C)Cc4nc5cc(C=CC(=O)NO)ccc5n4C)cc3n2)cn1 | < 100 nM
COc1ccc(-c2nc(N3CCOCC3)c3sc(CN(CCO)c4ncc(C(=O)NO)cn4)cc3n2)cn1 | < 100 nM

The next lines start with the values.

IC50 | Structure (SMILES)
100 to 1000 nM | CN(Cc1cc2nc(-c3ccc(N)c(Cl)c3)nc(N3CCOCC3)c2s1)c1ncc(C(=O)NO)cn1
100 to 1000 nM | CC(=NO)c1cccc(-c2nc(N3CCOCC3)c3sc(CN(C)c4ncc(C(=O)NO)cn4)cc3n2)c1
< 100 nM | COc1ncc(-c2nc(N3CCOCC3)c3sc(CN(C)c4ncc(C(=O)NO)cn4)cc3n2)cn1
100 to 1000 nM | CN(Cc1cc2nc(-c3cccc(SCCO)c3)nc(N3CCOCC3)c2s1)c1ncc(C(=O)NO)cn1
> 10000 nM | CN(C)CCOc1ccc(-c2nc(N3CCOCC3)c3sc(CN(C)c4ncc(C(=O)NO)cn4)cc3n2)cn1
100 to 1000 nM | CN(Cc1cc2nc(-c3cccc(S(N)(=O)=O)c3)nc(N3CCOCC3)c2s1)c1ncc(C(=O)NO)cn1
100 to 1000 nM | CN(Cc1cc2nc(-c3ccc(N)c(C#N)c3)nc(N3CCOCC3)c2s1)c1ncc(C(=O)NO)cn1
100 to 1000 nM | CC(O)c1ccc(F)c(-c2nc(N3CCOCC3)c3sc(CN(C)c4ncc(C(=O)NO)cn4)cc3n2)c1 (centres undefined)
100 to 1000 nM | CN(Cc1cc2nc(-c3cnn(C)c3)nc(N3CCOCC3)c2s1)c1ncc(C(=O)NO)cn1
100 to 1000 nM | CC(=O)c1cccc(-c2nc(N3CCOCC3)c3sc(CN(C)c4ncc(C(=O)NO)cn4)cc3n2)c1
< 100 nM | CN(Cc1cc2nc(-c3ccc(N)c(F)c3)nc(N3CCOCC3)c2s1)c1ncc(C(=O)NO)cn1
< 100 nM | CN(Cc1cc2nc(-c3cccc(OCCO)c3)nc(N3CCOCC3)c2s1)c1ncc(C(=O)NO)cn1
> 10000 nM | CNCCOc1ccc(-c2nc(N3CCOCC3)c3sc(CN(C)c4ncc(C(=O)NO)cn4)cc3n2)cn1
> 10000 nM | CN(Cc1cc2nc(-c3ccc(OCCN)nc3)nc(N3CCOCC3)c2s1)c1ncc(C(=O)NO)cn1
> 10000 nM | CN(Cc1cc2nc(-c3cccc(C(C)(C)O)c3)nc(N3CCOCC3)c2s1)c1ncc(C(=O)NO)cn1
100 to 1000 nM | C[C@@H](O)c1cccc(-c2nc(N3CCOCC3)c3sc(CN(C)c4ncc(C(=O)NO)cn4)cc3n2)c1
> 10000 nM | CN(Cc1cc2nc(-c3ccc(OCc4ccccc4)nc3)nc(N3CCOCC3)c2s1)c1ncc(C(=O)NO)cn1
100 to 1000 nM | C[C@H](O)c1cccc(-c2nc(N3CCOCC3)c3sc(CN(C)c4ncc(C(=O)NO)cn4)cc3n2)c1
< 100 nM | CN(Cc1cc2nc(-c3ccc(N)c([N+](=O)[O-])c3)nc(N3CCOCC3)c2s1)c1ncc(C(=O)NO)cn1
> 10000 nM | COc1ccc(-c2nc(N3CCOCC3)c3sc(CN(C)c4ncc(C(=O)NO)cn4)cc3n2)cc1
100 to 1000 nM | CN(Cc1cc2nc(-c3cnc(OCc4ccccc4)nc3)nc(N3CCOCC3)c2s1)c1ncc(C(=O)NO)cn1
< 100 nM | CN(Cc1cc2nc(-c3ccc(N)c(O)c3)nc(N3CCOCC3)c2s1)c1ncc(C(=O)NO)cn1
< 100 nM | CN(Cc1cc2nc(-c3cc(O)ccc3F)nc(N3CCOCC3)c2s1)c1ncc(C(=O)NO)cn1
> 10000 nM | CN(Cc1cc2nc(-c3ccc(C#N)cc3)nc(N3CCOCC3)c2s1)c1ncc(C(=O)NO)cn1
> 10000 nM | CN(Cc1cc2nc(-c3ccc(F)cc3)nc(N3CCOCC3)c2s1)c1ncc(C(=O)NO)cn1
> 10000 nM | CN(Cc1cc2nc(-c3ccc(Cl)cc3)nc(N3CCOCC3)c2s1)c1ncc(C(=O)NO)cn1
100 to 1000 nM | CN(Cc1cc2nc(-c3ccc(O)nc3)nc(N3CCOCC3)c2s1)c1ncc(C(=O)NO)cn1
> 10000 nM | CN(Cc1cc2nc(-c3ccc(S(C)(=O)=O)cc3)nc(N3CCOCC3)c2s1)c1ncc(C(=O)NO)cn1
> 10000 nM | CC(C)c1ccc(-c2nc(N3CCOCC3)c3sc(CN(C)c4ncc(C(=O)NO)cn4)cc3n2)cc1
